This note sets out measurements from patent US20090270371A1, “QUINOLINE DERIVATIVES USEFUL IN THE TREATMENT OF MGLUR5 RECEPTOR-MEDIATED DISORDERS” (priority 2005, published 2009).

In this assay the target is T1, rat mGluR5 receptors (Rattus norvegicus, UniProt P31424).
T1 construct: rat cerebro-cortical membrane preparation was used; from tissue; host or cells: rat cerebral cortex membranes
T1 sequence (P31424 21-1203): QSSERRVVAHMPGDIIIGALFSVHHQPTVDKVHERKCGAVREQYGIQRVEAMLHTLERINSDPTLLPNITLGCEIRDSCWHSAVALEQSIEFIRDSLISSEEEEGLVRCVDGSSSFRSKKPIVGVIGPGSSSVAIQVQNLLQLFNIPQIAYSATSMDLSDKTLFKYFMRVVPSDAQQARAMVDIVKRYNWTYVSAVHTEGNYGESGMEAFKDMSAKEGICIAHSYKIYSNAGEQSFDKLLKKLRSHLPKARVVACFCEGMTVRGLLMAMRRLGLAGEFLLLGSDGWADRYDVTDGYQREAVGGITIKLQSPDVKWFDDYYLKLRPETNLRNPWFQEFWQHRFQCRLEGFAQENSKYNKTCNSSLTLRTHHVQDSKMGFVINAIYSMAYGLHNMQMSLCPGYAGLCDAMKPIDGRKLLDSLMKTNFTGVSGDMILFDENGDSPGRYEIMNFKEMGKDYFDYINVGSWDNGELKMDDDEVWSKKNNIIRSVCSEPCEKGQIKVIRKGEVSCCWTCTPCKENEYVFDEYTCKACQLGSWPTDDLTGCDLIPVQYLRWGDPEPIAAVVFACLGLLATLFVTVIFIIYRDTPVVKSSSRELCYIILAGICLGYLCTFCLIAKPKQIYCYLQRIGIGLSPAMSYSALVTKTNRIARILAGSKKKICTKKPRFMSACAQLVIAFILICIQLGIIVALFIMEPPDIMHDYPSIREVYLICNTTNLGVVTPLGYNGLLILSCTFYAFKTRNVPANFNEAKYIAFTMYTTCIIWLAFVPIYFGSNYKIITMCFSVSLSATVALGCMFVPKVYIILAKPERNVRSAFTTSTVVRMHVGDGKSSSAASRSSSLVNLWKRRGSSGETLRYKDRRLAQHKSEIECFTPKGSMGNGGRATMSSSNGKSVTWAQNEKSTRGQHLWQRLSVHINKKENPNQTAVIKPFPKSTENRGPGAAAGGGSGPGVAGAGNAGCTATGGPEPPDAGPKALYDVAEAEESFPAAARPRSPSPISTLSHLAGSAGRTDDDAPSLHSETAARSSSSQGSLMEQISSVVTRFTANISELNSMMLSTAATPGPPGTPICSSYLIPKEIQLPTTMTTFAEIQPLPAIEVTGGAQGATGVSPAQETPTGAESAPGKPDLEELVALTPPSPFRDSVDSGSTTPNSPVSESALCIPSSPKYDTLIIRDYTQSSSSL
Put plainly: mGluR5 receptor binding test, rat cerebro-cortical membrane preparation, [3H]-M-MPEP. The conditions noted are these: affinity for rat mGluR5 receptors; [3H]-M-MPEP (2 nM) radioligand. The method, then: The mGluR5 receptor binding was determined according to the modified method of Gasparini et. al. (Bioorg. Med. Chem. Lett., 2000, 12, 407). Based on the high homology between the human and rat mGluR5 receptors, rat cerebro-cortical membrane preparation was used to determine the binding characteristics of the reference compounds and novel compounds to the rat mGluR5. The A18 cell line expressing hmGluR5a (purchased from Euroscreen) was used to determine binding characteristics of the chemical compounds to the human mGluR5a receptor. [^3H]-M-MPEP (2 nM) was used as radioligand. The nonspecific binding was determined in the presence of 10 μM M-MPEP.
`O=S(=O)(c1ccc(Cl)cc1)c1cnc2ccc(Cl)cc2c1N1CCOCC1` [Compound 295] displayed an inhibition constant Ki greater than 500 nM.
The same measure for `Cc1ccc(S(=O)(=O)c2cnc3ccc(Cl)cc3c2N2CCOCC2)cc1C` [Compound 38]: greater than 500 nM; for `COc1ccc(S(=O)(=O)c2cnc3ccc(F)cc3c2N2CCOCC2)cc1` [Compound 282]: greater than 500 nM.
As for `CC1CCN(c2c(S(=O)(=O)c3ccc(F)c(F)c3)cnc3ccc(Cl)cc23)CC1` [Compound 222], the Ki is 200 to 500 nM.
The same measure for `CCOc1ccc2ncc(S(=O)(=O)c3ccc(OC)cc3)c(N3CCOCC3)c2c1` [Compound 125]: greater than 500 nM; for `N#Cc1cccc(S(=O)(=O)c2cnc3cc(Cl)ccc3c2N2CCOCC2)c1` [Compound 320]: 200 to 500 nM; for `Cc1ccc(S(=O)(=O)c2cnc3c(F)cccc3c2N2CCC(C)CC2)cc1` [Compound 235]: less than 200 nM.
For `N#Cc1cccc(S(=O)(=O)c2cnc3ccc(F)cc3c2N2CCOCC2)c1` [Compound 281], the Ki was greater than 500 nM.
Next, `CC1CCN(c2c(S(=O)(=O)c3cccc(C#N)c3)cnc3ccc(F)cc23)CC1` [Compound 140]: less than 200 nM; `CC1CCN(c2c(S(=O)(=O)c3cccc(C#N)c3)cnc3cc(F)ccc23)CC1` [Compound 179]: less than 200 nM; `Cc1ccc(S(=O)(=O)c2cnc3ccc(Cl)cc3c2N2CCC(C)CC2)cc1F` [Compound 217]: 200 to 500 nM.
Take `COc1cccc(S(=O)(=O)c2cnc3ccc(C)cc3c2N2CCOCC2)c1` [Compound 260]: the Ki fell in the range of 200 to 500 nM.
Next, `Cc1ccc2ncc(S(=O)(=O)c3ccc(Cl)c(Cl)c3)c(N3CCOCC3)c2c1` [Compound 262]: 200 to 500 nM; `CC1CCN(c2c(S(=O)(=O)c3cccc(C#N)c3)cnc3cc(Cl)ccc23)CC1` [Compound 190]: less than 200 nM.
Regarding `COc1cccc(S(=O)(=O)c2cnc3ccc(C)cc3c2N2CCC(C)CC2)c1` [Compound 160], the Ki is less than 200 nM.
The same measure for `COc1ccc(S(=O)(=O)c2cnc3ccc(C)cc3c2N2CCOCC2)cc1` [Compound 258]: greater than 500 nM.
The same measure for `CC1CCN(c2c(S(=O)(=O)c3cc(Cl)cc(Cl)c3)cnc3c(F)cccc23)CC1` [Compound 226]: less than 200 nM; for `CC1CCN(c2c(S(=O)(=O)c3ccc(Cl)cc3)cnc3cc(Cl)ccc23)CC1` [Compound 195, 7-Chloro-3-(4-chloro-benzenesulfonyl)-4-(4-methyl-piperidin-1-yl)-quinoline]: less than 200 nM.
In turn, `CCc1ccc2ncc(S(=O)(=O)c3ccccc3)c(N3CCCCC3)c2c1` [Compound 45] had a Ki greater than 500 nM.
The same measure for `O=S(=O)(c1cccc(Cl)c1)c1cnc2cc(Cl)ccc2c1N1CCOCC1` [Compound 328]: less than 200 nM.
Next, `COc1ccc(S(=O)(=O)c2cnc3ccc(C)cc3c2N2CCC(C)CC2)cc1Cl` [Compound 162]: less than 200 nM; `Cc1cc(C)cc(S(=O)(=O)c2cnc3ccc(Cl)cc3c2N2CCC(C)CC2)c1` [Compound 224]: greater than 500 nM; `O=S(=O)(c1cccc(F)c1)c1cnc2cc(Cl)ccc2c1N1CCOCC1` [Compound 325]: greater than 500 nM.
The same measure for `COc1ccc(S(=O)(=O)c2cnc3cc(F)ccc3c2N2CCC(C)CC2)cc1OC` [Compound 182]: less than 200 nM; for `COc1ccc2ncc(S(=O)(=O)c3ccc(OC)c(Cl)c3)c(N3CCOCC3)c2c1` [Compound 277]: greater than 500 nM.
Compound `CCOc1ccc2ncc(S(=O)(=O)c3ccccc3)c(N3CCC(C)CC3)c2c1` [Compound 116] returned an inhibitory constant (Ki) greater than 500 nM.
The same measure for `Cc1ccc2ncc(S(=O)(=O)c3cccc(C#N)c3)c(N3CCC(C)CC3)c2c1` [Compound 155]: greater than 500 nM; for `CC1CCN(c2c(S(=O)(=O)c3cccc(F)c3)cnc3ccc(Cl)cc23)CC1` [Compound 214]: 200 to 500 nM; for `CC1CCN(c2c(S(=O)(=O)c3ccc(Cl)c(Cl)c3)cnc3cc(Cl)ccc23)CC1` [Compound 202]: less than 200 nM.
The same measure for `CC1CCN(c2c(S(=O)(=O)c3ccc(Cl)c(Cl)c3)cnc3ccc(F)cc23)CC1` [Compound 149]: less than 200 nM; for `CC1CCN(c2c(S(=O)(=O)c3cccc(F)c3)cnc3cc(Cl)ccc23)CC1` [Compound 197]: less than 200 nM.
`Cc1ccc2ncc(S(=O)(=O)c3ccc(Cl)cc3)c(N3CCC(C)CC3)c2c1` [Compound 158] had a Ki of 200 to 500 nM.
Next, `Cc1ccc(S(=O)(=O)c2cnc3ccc(Cl)cc3c2N2CCC(C)CC2)cc1Cl` [Compound 219]: 200 to 500 nM.
In turn, `Cc1ccc(S(=O)(=O)c2cnc3cc(F)ccc3c2N2CCOCC2)cc1C` [Compound 314] came in with a Ki of 200 to 500 nM.
Next, `CC1CCN(c2c(S(=O)(=O)c3ccc(Cl)cc3)cnc3c(F)cccc23)CC1` [Compound 231]: less than 200 nM; `O=S(=O)(c1ccccc1)c1cnc2cc3c(cc2c1N1CCN(c2ccccc2)CC1)OCCO3` [Compound 115]: greater than 500 nM; `CC1CCN(c2c(S(=O)(=O)c3ccc(F)cc3)cnc3c(F)cccc23)CC1` [Compound 228]: greater than 500 nM.
Next, `CC1CCN(c2c(S(=O)(=O)c3ccc(F)cc3)cnc3cc(F)ccc23)CC1` [Compound 172]: 200 to 500 nM; `CC1CCN(c2c(S(=O)(=O)c3ccc(C#N)cc3)cnc3cc(Cl)ccc23)CC1` [Compound 204]: 200 to 500 nM; `COc1cccc(S(=O)(=O)c2cnc3cc(Cl)ccc3c2N2CCC(C)CC2)c1` [Compound 198]: less than 200 nM.
The same measure for `Cc1ccc(S(=O)(=O)c2cnc3cc(Cl)ccc3c2N2CCOCC2)cc1C` [Compound 327]: less than 200 nM; for `COc1ccc2ncc(S(=O)(=O)c3ccc(Cl)cc3)c(N3CCCCCC3)c2c1` [Compound 112]: greater than 500 nM.
As for `Cc1ccc(S(=O)(=O)c2cnc3ccc(Cl)cc3c2N2CCC(C)CC2)cc1C` [Compound 220], the inhibition constant Ki is less than 200 nM.
In turn, `COc1cccc(S(=O)(=O)c2cnc3cc(Cl)ccc3c2N2CCOCC2)c1` [Compound 326] showed a Ki of 200 to 500 nM.
Next, `Cc1ccc(S(=O)(=O)c2cnc3ccccc3c2Nc2ccc(F)cc2)cc1` [Compound 25]: greater than 500 nM; `CC1CCN(c2c(S(=O)(=O)c3ccc(F)c(F)c3)cnc3cc(Cl)ccc23)CC1` [Compound 206]: less than 200 nM; `Cc1ccc(S(=O)(=O)c2cnc3ccc(C)cc3c2N2CCOCC2)cc1` [Compound 104]: greater than 500 nM.
As to `Cc1cc(C)cc(S(=O)(=O)c2cnc3cc(F)ccc3c2N2CCC(C)CC2)c1` [Compound 184], the Ki was in the range of 200 to 500 nM.
Next, `COc1cccc(S(=O)(=O)c2cnc3ccc(F)cc3c2N2CCOCC2)c1` [Compound 283]: greater than 500 nM; `O=S(=O)(c1ccc(Cl)cc1)c1cnc2c(Cl)ccc(Cl)c2c1N1CCOCC1` [Compound 347]: 200 to 500 nM; `O=S(=O)(c1ccc(F)c(Cl)c1)c1cnc2ccc(Cl)cc2c1N1CCOCC1` [Compound 302]: greater than 500 nM.
The same measure for `Cc1ccc(S(=O)(=O)c2cnc3cc4c(cc3c2N2CCOCC2)OCCO4)cc1` [Compound 94]: greater than 500 nM; for `Cc1ccc(S(=O)(=O)c2cnc3cc4c(cc3c2N2CCCCC2)OCCO4)cc1` [Compound 42]: greater than 500 nM; for `O=S(=O)(c1ccccc1)c1cnc2cc(Cl)ccc2c1N1CCOCC1` [Compound 323]: greater than 500 nM.

What is called Ki is the equilibrium dissociation constant of an inhibitor or competing ligand from its target.
